Earlier results in patent US6908924B2, “N4-acylcytosine-1,3-dioxolane nucleosides for treatment of viral infections” (Pharmasset, Inc., priority 2001, dated 2005).

Columns and labels:
[1] = target: HIV reverse transcriptase (HIV-RT) (Human immunodeficiency virus type 1 group M subtype B, UniProt P04585)
[2] = test system: HIV-1; conditions: as a reverse transcriptase inhibitor (RTI)

| Compound | Ki [1] [nM] | inhibition of HIV-1 replication in vitro [2] |
| --- | --- | --- |
| Nc1nc2c(ncn2[C@H]2CO[C@@H](COP(=O)(O)OP(=O)(O)OP(=O)(O)O)O2)c(=O)[nH]1 [DXG-TP] | 19 |  |
| Nc1nc(N)c2ncn([C@H]3CO[C@@H](CO)O3)c2n1 [DAPD, (−)-(2R,4R)-2-amino-9-[(2-hydroxymethyl)-1,3-dioxolan-4-yl]adenine] |  | selective inhibitor |
